For seven compounds, carcinogen call results are on record in PubChem BioAssay AID1259411 (Chemical Carcinogenesis Research Information System (CCRIS), 2018).

Active and inactive are the calls of the source. How the calls were made is not given here.

The data set relates to rodent carcinogenicity bioassays, tumor incidence. In words: CCRIS carcinogenicity studies. Summed up:
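NCI-built, expert-reviewed records of carcinogenicity and related test outcomes (mutagenicity, tumor promotion/inhibition) compiled from published and report sources, historical span 1985-2011, not updated.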

For `O=CCCCC=O`, the carcinogen call (Species: MOUSE, Strain/Sex: B6C3F1/FEMALE, Route: INHALATION, Dose: 0, 62.5, 125, 250 PPM 6 HR/D 5 D/WK FOR 104 WK (STUDY DURATION: 104 WK), Dose: 0, 62.5, 125, 250 PPM 6 HR/D 5 D/WK FOR 104 WK (STUDY DURATION: 104 WK)) was “inactive; negative”; the carcinogen call (Species: MOUSE, Strain/Sex: B6C3F1/FEMALE, Route: INHALATION, Dose: 0, 100 PPB 6 HR/D 5 D/WK FOR 52 OR 78 WK (STUDY DURATION: 78 WK)) was “inactive; negative”; the carcinogen call (Species: MOUSE, Strain/Sex: B6C3F1/MALE, Route: INHALATION, Dose: 0, 62.5, 125, 250 PPM 6 HR/D 5 D/WK FOR 104 WK (STUDY DURATION: 104 WK), Dose: 0, 62.5, 125, 250 PPM 6 HR/D 5 D/WK FOR 104 WK (STUDY DURATION: 104 WK)) was “inactive; negative”; the carcinogen call (Species: MOUSE, Strain/Sex: B6C3F1/MALE, Route: INHALATION, Dose: 0, 100 PPB 6 HR/D 5 D/WK FOR 52 OR 78 WK (STUDY DURATION: 78 WK)) is “inactive; negative”; the carcinogen call (Species: RAT, Strain/Sex: F344/FEMALE, Route: ORAL, Dose: 0, 50, 250, 1000 PPM IN DRINKING WATER FOR 104 WK (STUDY DURATION: 104 WK), Dose: 0, 50, 250, 1000 PPM IN DRINKING WATER FOR 104 WK (STUDY DURATION: 104 WK)) is “inactive; negative”; the carcinogen call (Species: RAT, Strain/Sex: F344/MALE, Route: ORAL, Dose: 0, 50, 250, 1000 PPM IN DRINKING WATER FOR 104 WK (STUDY DURATION: 104 WK), Dose: 0, 50, 250, 1000 PPM IN DRINKING WATER FOR 104 WK (STUDY DURATION: 104 WK)) was “inactive; negative”. In addition, the carcinogen call was “inactive; negative” (Species: RAT, Strain/Sex: F344/N/FEMALE, Route: INHALATION, Dose: 0, 250, 500, 750 PPM 6 HR/D 5 D/WK FOR 104 WK (STUDY DURATION: 104 WK), Dose: 0, 250, 500, 750 PPM 6 HR/D 5 D/WK FOR 104 WK (STUDY DURATION: 104 WK)); “inactive; negative” (Species: RAT, Strain/Sex: F344/N/MALE, Route: INHALATION, Dose: 0, 250, 500, 750 PPM 6 HR/D 5 D/WK FOR 104 WK (STUDY DURATION: 104 WK), Dose: 0, 250, 500, 750 PPM 6 HR/D 5 D/WK FOR 104 WK (STUDY DURATION: 104 WK)); “active; positive” (Species: Rat, Strain/Sex: Fischer 344/Female (80/Group), Route: Oral, Dose: 0, 50, 250, 1000 ppm (0; 5.5; 25.1; 85.9 mg/kg/d) in drinking water for 104 wk, study duration 104 wk, Dose: 0, 50, 250, 1000 ppm (0; 5.5; 25.1; 85.9 mg/kg/d) in drinking water for 104 wk, study duration 104 wk, Tumor Site: Type of Lesion: Large granular lymphocyte leukemia (24, 41, 41, 53/100 animals)); “inactive; negative” (Species: Rat, Strain/Sex: Fischer 344/Male (80/Group), Route: Oral, Dose: 0, 50, 250, 1000 ppm (0; 3.6; 17.1; 63.9 mg/kg/d) in drinking water for 104 wk, study duration 104 wk, Dose: 0, 50, 250, 1000 ppm (0; 3.6; 17.1; 63.9 mg/kg/d) in drinking water for 104 wk, study duration 104 wk).

Take `Cc1c(N(C)C)c(=O)n(-c2ccccc2)n1C`: the carcinogen call runs as follows: (Species: MOUSE, Strain/Sex: B6C3F1/FEMALE, Route: ORAL, Dose: 0, 0.04, 0.08% IN DRINKING WATER FOR 100 WK (STUDY DURATION: 104 WK), Dose: 0, 0.04, 0.08% IN DRINKING WATER FOR 100 WK (STUDY DURATION: 104 WK)) “inactive; negative”; (Species: MOUSE, Strain/Sex: B6C3F1/MALE, Route: ORAL, Dose: 0, 0.04, 0.08% IN DRINKING WATER FOR 100 WK (STUDY DURATION: 104 WK), Dose: 0, 0.04, 0.08% IN DRINKING WATER FOR 100 WK (STUDY DURATION: 104 WK)) “inactive; negative”.

For the compound `CC1=CC(=C(c2ccc(N)cc2)c2ccc(N)cc2)C=CC1=N`, the carcinogen call by setting is: (Species: HUMAN, Route: ORAL, INHALATION, DERMAL, Tumor Site: Type of Lesion: URINARY BLADDER) “active; positive”; (Species: RAT, Strain/Sex: SPRAGUE-DAWLEY/FEMALE, Route: GAVAGE, Dose: 0, 200 MG/KG BW 2/WK FOR 8 WK WITH A 1 WK REST AFTER 2 WK THEN STARTING AT 9 WK 100 MG/KG BW 2/WK FOR DURATION OF STUDY) “inactive; negative”; (Species: RAT, Strain/Sex: SPRAGUE-DAWLEY/MALE, Route: GAVAGE, Dose: 0, 200 MG/KG BW 2/WK FOR 8 WK WITH A 1 WK REST AFTER 2 WK THEN STARTING AT 9 WK 100 MG/KG BW 2/WK FOR DURATION OF STUDY) “inactive; negative”.

As for `CC(C)Nc1nc(Cl)nc(NCC(=O)O)n1`, the carcinogen call was “inactive; negative” (Species: Mouse, Strain/Sex: Crl:CD-1(ICR)BR/Female, Route: Oral, Dose: 0, 10, 30, 300, 900 ppm in diet for 18 mo, Dose: 0, 10, 30, 300, 900 ppm in diet for 18 mo); “active; positive (only at highest dose)” (Species: Mouse, Strain/Sex: Crl:CD-1(ICR)BR/Male, Route: Oral, Dose: 0, 10, 30, 300, 900 ppm in diet for 18 mo, Dose: 0, 10, 30, 300, 900 ppm in diet for 18 mo, Tumor Site: Type of Lesion: Liver: Multiple hepatocellular adenomas (3/60 at 900 ppm vs. 0/60 in controls) Blood Vessels: Hemangiosarcomas (2/60 at); “inactive; negative” (Species: Rat, Strain/Sex: Crl:CD BR/Female, Route: Oral, Dose: 0, 5, 15, 30, 300, 900 ppm in diet for 24 mo, Dose: 0, 5, 15, 30, 300, 900 ppm in diet for 24 mo); “active; positive (at highest dose only); ca dpr describes as a possible adverse effect” (Species: Rat, Strain/Sex: Crl:CD BR/Male, Route: Oral, Dose: 0, 5, 15, 30, 300, 900 ppm in diet for 24 mo, Dose: 0, 5, 15, 30, 300, 900 ppm in diet for 24 mo, Tumor Site: Type of Lesion: Thyroid: Thyroid follicular cell adenoma).

Take `CC1CS(=O)(=O)CCN1/N=C/c1ccc([N+](=O)[O-])o1` (stereo not drawn): the carcinogen call by setting is: (Species: MOUSE, Strain/Sex: SWISS/FEMALE, Route: INTRAPERITONEAL, Dose: 0, 8 UG/G BW 1/D FOR 30 DAYS (STUDY DURATION: LIFETIME), Tumor Site: Type of Lesion: LYMPHATIC SYSTEM: LYMPHOMA) “active; positive”; (Species: MOUSE, Strain/Sex: SWISS/FEMALE, Route: INTRAPERITONEAL, Dose: 0, 8 UG/G BW 1/D FOR 60 DAYS (STUDY DURATION: LIFETIME), Tumor Site: Type of Lesion: LYMPHATIC SYSTEM: LYMPHOMA) “active; positive”.

For `C[C@H](CCC(=O)N(CCS(=O)(=O)O)N=O)[C@H]1CCC2C3C(C[C@H](O)[C@@]21C)[C@@]1(C)CC[C@@H](O)C[C@H]1C[C@H]3O` (stereo partly drawn), under “Species: RAT, Strain/Sex: F344/MALE, Route: GAVAGE, Dose: 0, 10 MG IN 50 µL DMSO 5 D/WK FOR 6 WK (STUDY DURATION: 108 WK), Tumor Site: Type of Lesion: LIVER: CARCINOMA”, the carcinogen call was “active; positive”.

Regarding `O=C1NCCN1/N=C/c1ccc([N+](=O)[O-])o1`, the carcinogen call (Species: RAT, Route: ORAL, Tumor Site: Type of Lesion: LYMPHATIC SYSTEM: LYMPHOBLASTIC LYMPHOMA, MAMMARY GLAND) was “active; positive”.
